Data published in US7183324B2, “2,3,4-substituted cyclopentanones as therapeutic agents” (Allergan, Inc., priority 2004, dated 2007).

Legend:
Beagle dogs [1] = assay: Ocular surface hyperemia in dogs; type: in vivo; conditions: dog, topical, score: trace 0.5, mild 1, moderate 2, severe 3
Procedure: (§1) • Intraocular Pressure (IOP) Intraocular pressure studies in dogs involved pneumatonometry performed in conscious, Beagle dogs of both sexes (10–15 kg). The animals remained conscious throughout the study and were gently restrained by hand. Drugs were administered topically to one eye as a 25 μL volume drop, the other eye received 25 μL vehicle (0.1% polysorbate 80:10 mM TRIS) as a control. Proparacaine (0.1%) was used for corneal anesthesia during tonometry. Intraocular pressure was determined just before drug administration and at 2, 4 and 6 hr thereafter on each day of the 5 day study. Drug was administered immediately after the first IOP reading. • An analogous procedure was carried out with cynomolgus monkeys with measurements at 2, 4, 6, and 24 hours after a single dose. • Pupil Diameter • Dog pupil diameter was measured using an optistick (a mm ruler which included half-circle references of standard widths (mm) for reference. Gently restraining the dog by hand, pupil diameter was determined by matching a half-circle to the pupil in normal room light. In dogs with very dark pupils a specialized penlight was used, but only very briefly to avoid pupil constriction. Pupil diameter was measured at the same time as IOP and hyperemia. • Ocular Surface Hyperemia • Ocular surface hyperemia was visually assessed and scored according to a system typically used clinically.
• Ocular surface hyperemia was evaluated at the same time points as intraocular pressure measurement. It should be noted that untreated dog eyes frequently have a pink/red tone. Thus, values of trace or even mild are not necessarily out of the normal range.

Beagle dogs [2] = assay: Intraocular pressure in dogs (pneumatonometry); type: in vivo; conditions: dog, topical 25 μL drop, 5 day study
Procedure: as §1

hTP = target: T1, hTP (Homo sapiens, UniProt P21731); assay: FLIPR calcium signal, hTP; type: cell-based; conditions: HEK-293 (EBNA) cells, read-out: FUNCTIONAL EC50 HTP
T1 construct: expressed in transfected cells; host or cells: HEK-293 (EBNA)
T1 sequence (P21731 1-343): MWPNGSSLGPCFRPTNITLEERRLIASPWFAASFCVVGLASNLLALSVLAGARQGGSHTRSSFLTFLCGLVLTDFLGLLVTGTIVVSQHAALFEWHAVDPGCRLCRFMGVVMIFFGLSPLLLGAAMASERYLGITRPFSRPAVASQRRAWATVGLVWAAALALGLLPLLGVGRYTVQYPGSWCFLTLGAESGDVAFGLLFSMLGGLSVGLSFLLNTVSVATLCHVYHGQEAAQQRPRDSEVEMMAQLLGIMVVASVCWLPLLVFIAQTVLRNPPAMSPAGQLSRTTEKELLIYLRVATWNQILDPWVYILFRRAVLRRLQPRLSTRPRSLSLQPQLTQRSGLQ
Procedure: (§2) HEK-293 (EBNA) cells, stably expressing one type or subtype of recombinant human prostaglandin receptors (prostaglandin receptors expressed: hDP/Gqs5; hEP1; hEP2/Gqs5; hEP3A/Gqi5; hEP4/Gqs5; hFP; hIP; hTP), were cultured in 100 mm culture dishes in high-glucose DMEM medium containing 10% fetal bovine serum, 2 mM 1-glutamine, 250 μg/ml geneticin (G418) and 200 μg/ml hygromycin B as selection markers, and 100 units/ml penicillin G, 100 μg/ml streptomycin and 0.25 μg/ml amphotericin B. • (b) Calcium Signal Studies on the FLIPR™
(§3) Cells were seeded at a density of 5×10^4 cells per well in Biocoat® Poly-D-lysine-coated black-wall, clear-bottom 96-well plates (Becton-Dickinson) and allowed to attach overnight in an incubator at 37° C. Cells were then washed two times with HBSS-HEPES buffer (Hanks Balanced Salt Solution without bicarbonate and phenol red, 20 mM HEPES, pH 7.4) using a Denley Cellwash plate washer (Labsystems). After 45 minutes of dye-loading in the dark, using the calcium-sensitive dye Fluo-4 AM at a final concentration of 2 μM, plates were washed four times with HBSS-HEPES buffer to remove excess dye leaving 100 μl in each well. Plates were re-equilibrated to 37° C. for a few minutes.
(§4) Cells were excited with an Argon laser at 488 nm, and emission was measured through a 510–570 nm bandwidth emission filter (FLIPR™, Molecular Devices, Sunnyvale, Calif.). Drug solution was added in a 50 μl volume to each well to give the desired final concentration. The peak increase in fluorescence intensity was recorded for each well. On each plate, four wells each served as negative (HBSS-HEPES buffer) and positive controls (standard agonists: BW245C (hDP); PGE2 (hEP1; hEP2/Gqs5; hEP3A/Gqi5; hEP4/Gqs5); PGF2α (hFP); carbacyclin (hIP); U46619 (hTP), depending on receptor). The peak fluorescence change in each drug-containing well was then expressed relative to the controls.
(§5) Compounds were tested in a high-throughput (HTS) or concentration-response (CoRe) format. In the HTS format, forty-four compounds per plate were examined in duplicates at a concentration of 10^−5 M. To generate concentration-response curves, four compounds per plate were tested in duplicates in a concentration range between 10^−5 and 10^−11 M. The duplicate values were averaged. In either, HTS or CoRe format each compound was tested on at least 3 separate plates using cells from different passages to give an n≧3.

HEP2 = target: T2, HEP2 (Homo sapiens, UniProt P43116); assay: Radioligand binding, EP2 receptor; conditions: [3H]PGE2 5 nM, HEK-293 membranes
T2 construct: expressed in transfected cells; host or cells: HEK-293
T2 sequence (P43116 whole entry): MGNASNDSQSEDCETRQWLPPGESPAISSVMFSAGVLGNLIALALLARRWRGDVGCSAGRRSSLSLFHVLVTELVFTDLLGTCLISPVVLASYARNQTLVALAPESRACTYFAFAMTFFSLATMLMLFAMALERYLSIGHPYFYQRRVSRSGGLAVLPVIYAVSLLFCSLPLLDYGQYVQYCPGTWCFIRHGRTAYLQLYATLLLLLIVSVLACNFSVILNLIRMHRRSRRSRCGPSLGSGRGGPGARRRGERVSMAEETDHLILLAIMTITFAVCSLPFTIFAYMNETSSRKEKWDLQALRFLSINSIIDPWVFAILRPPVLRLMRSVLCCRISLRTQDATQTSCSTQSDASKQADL
Procedure: (§6) HEK-293 cells stably expressing the human or feline FP receptor, or EP1, EP2, or EP4 receptors were washed with TME buffer, scraped from the bottom of the flasks, and homogenized for 30 sec using a Brinkman PT 10/35 polytron. TME buffer was added to achieve a final 40 ml volume in the centrifuge tubes (the composition of TME is 100 mM TRIS base, 20 mM MgCl2, […]; 10N HCl is added to achieve a pH of 7.4).
(§7) The cell homogenate was centrifuged at 19000 r.p.m. for 20 min at 4° C. using a Beckman Ti-60 rotor. The resultant pellet was resuspended in TME buffer to give a final 1 mg/ml protein concentration, as determined by Biorad assay. Radioligand binding competition assays vs. [^3H-]17-phenyl PGF2α (5 nM) were performed in a 100 μl volume for 60 min. Binding reactions were started by adding plasma membrane fraction. The reaction was terminated by the addition of 4 ml ice-cold TRIS-HCl buffer and rapid filtration through glass fiber GF/B filters using a Brandel cell harvester. The filters were washed 3 times with ice-cold buffer and oven dried for one hour. Non-specific binding was determined with 10 uM unlabeled 17-phenyl PGF2α.
(§8) [^3H-] PGE2 (5 nM; specific activity 180 Ci mmol) was used as the radioligand for EP receptors. Binding studies employing EP1, EP2, EP3, EP4 were performed in duplicate in at least three separate experiments. A 200 μl assay volume was used. Incubations were for 60 min at 25° C. and were terminated by the addition of 4 ml of ice-cold 50 mM TRIS-HCl, followed by rapid filtration through Whatman GF/B filters and three additional 4 ml washes in a cell harvester (Brandel). Non-specific binding determined with 10^−5M of unlabeled PGE2.

HEP4 = target: T3, HEP4 (Homo sapiens, UniProt P35408); assay: Radioligand binding, EP4 receptor; conditions: [3H]PGE2 5 nM, HEK-293 membranes
T3 construct: expressed in transfected cells; host or cells: HEK-293
T3 sequence (P35408 whole entry): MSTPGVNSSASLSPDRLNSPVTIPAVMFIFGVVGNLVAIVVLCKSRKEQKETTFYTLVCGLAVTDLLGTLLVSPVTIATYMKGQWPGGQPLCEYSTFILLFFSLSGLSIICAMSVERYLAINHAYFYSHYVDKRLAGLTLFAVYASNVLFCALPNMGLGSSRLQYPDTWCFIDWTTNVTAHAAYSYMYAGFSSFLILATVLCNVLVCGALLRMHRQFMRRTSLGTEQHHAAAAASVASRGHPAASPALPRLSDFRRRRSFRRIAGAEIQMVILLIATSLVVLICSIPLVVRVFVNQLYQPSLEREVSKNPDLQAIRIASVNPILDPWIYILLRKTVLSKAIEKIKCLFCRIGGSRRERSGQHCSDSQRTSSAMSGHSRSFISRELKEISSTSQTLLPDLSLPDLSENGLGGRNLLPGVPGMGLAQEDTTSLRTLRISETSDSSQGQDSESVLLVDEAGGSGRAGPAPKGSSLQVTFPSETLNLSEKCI
Procedure: as §6, §7, §8

hEP3A/Gqi5 = target: T4, hEP3A/Gqi5 (Homo sapiens, UniProt P43115); assay: FLIPR calcium signal, hEP3A/Gqi5; type: cell-based; conditions: HEK-293 (EBNA) cells, read-out: FUNCTIONAL EC50 HEP3A
T4 construct: expressed in transfected cells; host or cells: HEK-293 (EBNA)
T4 sequence (P43115 1-390): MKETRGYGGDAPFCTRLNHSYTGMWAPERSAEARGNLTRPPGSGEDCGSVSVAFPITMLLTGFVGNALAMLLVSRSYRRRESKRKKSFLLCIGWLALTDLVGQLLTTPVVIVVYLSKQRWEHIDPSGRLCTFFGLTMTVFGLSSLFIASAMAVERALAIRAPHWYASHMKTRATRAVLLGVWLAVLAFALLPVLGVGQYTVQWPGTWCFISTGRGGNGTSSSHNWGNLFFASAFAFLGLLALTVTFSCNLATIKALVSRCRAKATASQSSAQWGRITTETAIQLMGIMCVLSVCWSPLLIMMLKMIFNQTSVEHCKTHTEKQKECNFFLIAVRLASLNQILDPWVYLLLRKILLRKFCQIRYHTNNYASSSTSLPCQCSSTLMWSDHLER
Procedure: as §2, §3, §4, §5

hEP4/Gqs5 = target: T5, hEP4/Gqs5 (Homo sapiens, UniProt P35408); assay: FLIPR calcium signal, hEP4/Gqs5; type: cell-based; conditions: HEK-293 (EBNA) cells, read-out: FUNCTIONAL EC50 HEP4
T5 construct: expressed in transfected cells; host or cells: HEK-293 (EBNA)
T5 sequence (P35408 whole entry): as the sequence (P35408 whole entry) above
Procedure: as §2, §3, §4, §5

HEP3D = target: T6, HEP3D (Homo sapiens, UniProt P43115); assay: Radioligand binding, EP3 receptor; conditions: [3H]PGE2 5 nM
T6 sequence (P43115 1-374 isoform P43115-4): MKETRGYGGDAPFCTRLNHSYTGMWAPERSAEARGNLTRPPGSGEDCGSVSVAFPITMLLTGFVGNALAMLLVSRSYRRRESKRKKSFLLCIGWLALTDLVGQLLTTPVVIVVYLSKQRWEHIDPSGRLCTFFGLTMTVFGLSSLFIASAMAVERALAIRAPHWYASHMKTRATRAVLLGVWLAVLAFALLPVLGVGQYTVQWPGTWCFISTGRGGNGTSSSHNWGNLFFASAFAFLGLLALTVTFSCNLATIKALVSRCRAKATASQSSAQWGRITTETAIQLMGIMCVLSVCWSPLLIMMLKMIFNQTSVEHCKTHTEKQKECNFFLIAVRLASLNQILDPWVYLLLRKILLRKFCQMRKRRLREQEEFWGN
Procedure: as §6, §7, §8

| SMILES | Max hyperemia (Beagle dogs [1]; Conc. 0.03%) | Max. ΔIOP (Beagle dogs [2]; Conc. 0.03%) | Max hyperemia (Beagle dogs [1]; Conc. 0.1%) | Max. ΔIOP (Beagle dogs [2]; Conc. 0.1%) | EC50 (hTP) | IC50 (HEP2) | IC50 (HEP4) | EC50 (hEP3A/Gqi5) | EC50 (hEP4/Gqs5) | IC50 (HEP3D) |
| --- | --- | --- | --- | --- | --- | --- | --- | --- | --- | --- |
| CC(C)OC(=O)CSCCCS[C@H]1C(=O)C[C@@H](CO)[C@@H]1/C=C/C(O)Cc1ccccc1 (single isomer, unassigned) [Compound 150, {3-[3-Hydroxymethyl-2-(3-hydroxy-4-phenyl-but-1-enyl)-5-oxo-cyclopentylsulfanyl]-propylsulfanyl}-acetic acid isopropyl ester] | 0.9 | −5.5 mm Hg |  |  |  |  |  |  |  |  |
| O=C(O)CSCCCS[C@H]1C(=O)CC[C@@H]1/C=C/C(O)CCc1ccc2ccccc2c1 (single isomer, unassigned) [Compound 153] |  |  | 1.8 | −4.4 mm Hg | > 10000 nM | > 10000 nM | 140 nM | > 10000 nM | 0.3 nM |  |
| O=C(O)CSCCCS[C@H]1C(=O)CC[C@@H]1/C=C/C(O)CCc1ccc2ccccc2c1 (single isomer, unassigned) [drawing 36] |  |  |  |  |  | 8100 nM | 140 nM |  | 1 nM |  |
| COC(=O)CSCCCS[C@H]1C(=O)CC[C@@H]1/C=C/C(O)Cc1ccccc1 (single isomer, unassigned) [drawing 46] |  |  |  |  | > 10000 nM |  | 19 nM | > 10000 nM | 0.09 nM | > 10000 nM |
| O=C(O)CSCCCS[C@H]1C(=O)CC[C@@H]1/C=C/C(O)Cc1ccccc1 (single isomer, unassigned) [drawing 48] |  |  |  |  | > 10000 nM |  | 11 nM | > 10000 nM |  | > 10000 nM |
| O=C(O)CSCCCS[C@H]1C(=O)C[C@@H](CO)[C@@H]1/C=C/C(O)CCc1ccc2ccccc2c1 (stereo partly drawn) [Compound 141b, {3-[(1R,2S,3R)-3-Hydroxymethyl-2-((E)-3-hydroxy-5-naphthalen-2-yl-pent-1-enyl)-5-oxo-cyclopentylsulfanyl]-propylsulfanyl}-acetic acid] |  |  | 0.7 | −1.6 mm Hg |  |  | 400 nM |  | 219 nM |  |
| O=C(O)CSCCCS[C@H]1C(=O)CC[C@@H]1/C=C/C(O)CCc1cc2ccccc2s1 (stereo partly drawn) [drawing 25, {3-[(1R,2R)-2-((E)-5-Benzo[b]thiophen-2-yl-3-hydroxy-pent-1-enyl)-5-oxo-cyclopentylsulfanyl]-propylsulfanyl}-acetic acid] |  |  |  |  | > 10000 nM | > 10000 nM | 44 nM | 1950 nM | 3.7 nM | > 10000 nM |
| O=C(O)CSCCCS[C@H]1C(=O)CC[C@@H]1/C=C/C(O)CCc1cc2ccccc2s1 (stereo partly drawn) [drawing 26, {3-[(1R,2R)-2-((E)-5-Benzo[b]thiophen-2-yl-3-hydroxy-pent-1-enyl)-5-oxo-cyclopentylsulfanyl]-propylsulfanyl}-acetic acid] |  |  |  |  |  | > 10000 nM | 45 nM |  | 2.4 nM | > 10000 nM |
| COC(=O)CSCCCS[C@H]1C(=O)CC[C@@H]1/C=C/C(O)CCc1cc2ccccc2s1 (stereo partly drawn) [drawing 28, {3-[(1R,2R)-2-((E)-5-Benzo[b]thiophen-2-yl-3-hydroxy-pent-1-enyl)-5-oxo-cyclopentylsulfanyl]-propylsulfanyl}-acetic acid methyl ester] |  |  |  |  |  | > 10000 nM | 300 nM |  | 11 nM |  |
| O=C(O)CSCCCS[C@H]1C(=O)CC[C@@H]1/C=C/C(O)Cc1ccc2ccccc2c1 (stereo partly drawn) [{3-[(1R,2R)-2-((E)-3-Hydroxy-4-naphthalen-2-yl-but-1-enyl)-5-oxo-cyclopentylsulfanyl]-propylsulfanyl}-acetic acid] |  |  |  |  | > 10000 nM |  | 26 nM | > 10000 nM | 0.4 nM | > 10000 nM |
